# Laboratory results as given in PMC10986521 (Microbiology Spectrum, 2024).
# Assays:
# FMDV 3Cpro [1] = target: T1, FMDV 3Cpro (Foot-and-mouth disease virus A, UniProt A0A097I315); assay: biochemical; set-up: species or system FMDV A/IND287/96 strain (serotype A); settings: FRET assay (IC50)
# FMDV 3Cpro [2] = target: T1, FMDV 3Cpro; assay: cell-based; set-up: species or system FMDV A/IND287/96 strain; settings: Cell-based assay (EC50)
# in vitro = settings: human
# FMDV = settings: cited from earlier work
SMILES,IC50 (FMDV 3Cpro [1]),EC50 (FMDV 3Cpro [2]),CC50 (in vitro),replication of FMDV in cell culture via inhibiting 3Cpro (FMDV)
CC(C)C[C@H](NC(=O)OC[C@@H]1C[C@H]1C1CCC(F)(F)CC1)C(=O)N[C@@H](C[C@H]1CCNC1=O)C(O)S(=O)(=O)O (stereo partly shown) [Compound C17d],750 ± 90 nM,> 10000 nM,> 50000 nM,
CC(C)C[C@H](NC(=O)OCC(C)(C)Sc1ccccc1)C(=O)N[C@@H](C[C@@H]1CCNC1=O)C(=O)C(=O)NC1CC1 [Compound D1e],3750 ± 70 nM,5000 ± 280 nM,> 50000 nM,
CC(C)C[C@H](NC(=O)OCC(C)(C)Sc1ccccc1)C(=O)N[C@H](C#N)C[C@@H]1CCNC1=O [Compound D1f],> 25000 nM,> 10000 nM,> 50000 nM,
[2H]C([2H])(OC(=O)N[C@@H](CC(C)C)C(=O)N[C@H](C=O)C[C@@H]1CCNC1=O)C(C)(C)Sc1ccccc1 [Compound D2c],1520 ± 20 nM,2500 ± 420 nM,> 50000 nM,
[2H]C([2H])(OC(=O)N[C@@H](CC(C)C)C(=O)N[C@@H](C[C@@H]1CCNC1=O)C(O)S(=O)(=O)[O-])C(C)(C)Sc1ccccc1.[Na+] (stereo partly shown) [Compound D2d],1150 ± 70 nM,2910 ± 430 nM,> 50000 nM,
CC(C)C[C@H](NC(=O)OCC(C)(C)[S+]([O-])c1ccccc1)C(=O)N[C@H](C=O)C[C@@H]1CCNC1=O (stereo partly shown) [Compound D3c],1140 ± 80 nM,> 10000 nM,> 50000 nM,
CC(C)C[C@H](NC(=O)OCC(C)(C)[S+]([O-])c1ccccc1)C(=O)N[C@@H](C[C@@H]1CCNC1=O)C(O)S(=O)(=O)O (stereo partly shown) [Compound D3d],1050 ± 210 nM,> 10000 nM,> 50000 nM,
CC(C)C[C@H](NC(=O)OCC(C)(C)S(=O)(=O)c1ccccc1)C(=O)N[C@H](C=O)C[C@@H]1CCNC1=O [Compound D4c],900 ± 280 nM,> 10000 nM,> 50000 nM,
CC(C)C[C@H](NC(=O)OCC(C)(C)S(=O)(=O)c1ccccc1)C(=O)N[C@@H](C[C@@H]1CCNC1=O)C(O)S(=O)(=O)O (stereo partly shown) [Compound D4d],650 ± 90 nM,> 10000 nM,> 50000 nM,
CC(C)C[C@H](NC(=O)OCC(C)(C)Sc1cccc(F)c1)C(=O)N[C@H](C=O)C[C@@H]1CCNC1=O [Compound D5c],3150 ± 490 nM,1000 ± 280 nM,> 50000 nM,
CC(C)C[C@H](NC(=O)OCC(C)(C)Sc1ccc(F)cc1)C(=O)N[C@H](C=O)C[C@@H]1CCNC1=O [Compound D6c],910 ± 150 nM,5150 ± 640 nM,> 50000 nM,
CC(C)C[C@H](NC(=O)OCC(C)(C)Sc1ccc(F)cc1)C(=O)N[C@@H](C[C@@H]1CCNC1=O)C(O)S(=O)(=O)O (stereo partly shown) [Compound D6d],980 ± 110 nM,5850 ± 350 nM,> 50000 nM,
CC(C)C[C@H](NC(=O)OCC(C)(C)Sc1cccc(Cl)c1)C(=O)N[C@H](C=O)C[C@@H]1CCNC1=O [Compound D7c],1500 ± 280 nM,1050 ± 210 nM,> 50000 nM,
CC(C)C[C@H](NC(=O)OCC(C)(C)Sc1cccc(Cl)c1)C(=O)N[C@@H](C[C@@H]1CCNC1=O)C(O)S(=O)(=O)O (stereo partly shown) [Compound D7d],600 ± 10 nM,1200 ± 140 nM,> 50000 nM,
CC(C)C[C@H](NC(=O)OCCSc1ccccc1)C(=O)N[C@H](C=O)C[C@@H]1CCNC1=O [Compound D8c],1350 ± 350 nM,1750 ± 210 nM,> 50000 nM,
CC(C)C[C@H](NC(=O)OCCSc1ccccc1)C(=O)N[C@@H](C[C@@H]1CCNC1=O)C(O)S(=O)(=O)O (stereo partly shown) [Compound D8d],1030 ± 240 nM,1950 ± 220 nM,> 50000 nM,
CC(C)C[C@H](NC(=O)OCC(C)(C)Sc1nc2ccccc2[nH]1)C(=O)N[C@H](C=O)C[C@@H]1CCNC1=O [Compound D9c],2150 ± 340 nM,> 10000 nM,> 50000 nM,
CC(C)C[C@H](NC(=O)OCC(C)(C)Sc1nc2ccccc2[nH]1)C(=O)N[C@@H](C[C@@H]1CCNC1=O)C(O)S(=O)(=O)O (stereo partly shown) [Compound D9d],1750 ± 920 nM,> 10000 nM,> 50000 nM,
CC(C)C[C@H](NC(=O)OCC(C)(C)Oc1ccc(Cl)cc1)C(=O)N[C@H](C=O)C[C@@H]1CCNC1=O [Compound D11c],690 ± 60 nM,640 ± 150 nM,> 50000 nM,
CC(C)C[C@H](NC(=O)OCC(C)(C)Oc1ccc(Cl)cc1)C(=O)N[C@@H](C[C@@H]1CCNC1=O)C(O)S(=O)(=O)O (stereo partly shown) [Compound D11d],490 ± 50 nM,980 ± 1110 nM,> 50000 nM,

SMILES,IC50 (FMDV 3Cpro [1]),EC50 (FMDV 3Cpro [2]),CC50 (in vitro),replication of FMDV in cell culture via inhibiting 3Cpro (FMDV)
[2H]C([2H])(OC(=O)N[C@@H](CC(C)C)C(=O)N[C@H](C=O)C[C@@H]1CCNC1=O)C(C)(C)Oc1ccc(Cl)cc1 [Compound D12c],140 ± 20 nM,350 ± 100 nM,> 50000 nM,
[2H]C([2H])(OC(=O)N[C@@H](CC(C)C)C(=O)N[C@@H](C[C@@H]1CCNC1=O)C(O)S(=O)(=O)[O-])C(C)(C)Oc1ccc(Cl)cc1.[Na+] (stereo partly shown) [Compound D12d],190 ± 10 nM,430 ± 310 nM,> 50000 nM,
CC(C)C[C@H](NC(=O)OCC(C)(C)Oc1cccc(Cl)c1)C(=O)N[C@H](C=O)C[C@@H]1CCNC1=O [Compound D13c],670 ± 80 nM,5340 ± 1190 nM,> 50000 nM,
CC(C)C[C@H](NC(=O)OCC(C)(C)Oc1cccc(Cl)c1)C(=O)N[C@@H](C[C@@H]1CCNC1=O)C(O)S(=O)(=O)O (stereo partly shown) [Compound D13d],650 ± 210 nM,7700 ± 850 nM,> 50000 nM,
[2H]C([2H])(OC(=O)N[C@@H](CC(C)C)C(=O)N[C@H](C=O)C[C@@H]1CCNC1=O)C(C)(C)Oc1cccc(Cl)c1 [Compound D14c],500 ± 140 nM,3380 ± 390 nM,> 50000 nM,
[2H]C([2H])(OC(=O)N[C@@H](CC(C)C)C(=O)N[C@@H](C[C@@H]1CCNC1=O)C(O)S(=O)(=O)[O-])C(C)(C)Oc1cccc(Cl)c1.[Na+] (stereo partly shown) [Compound D14d],650 ± 70 nM,4810 ± 3060 nM,> 50000 nM,
CC(C)C[C@H](NC(=O)OCC(C)(C)Oc1ccc(F)cc1)C(=O)N[C@H](C=O)C[C@@H]1CCNC1=O [Compound D15c],450 ± 70 nM,5250 ± 640 nM,> 50000 nM,
CC(C)C[C@H](NC(=O)OCC(C)(C)Oc1ccc(F)cc1)C(=O)N[C@@H](C[C@@H]1CCNC1=O)C(O)S(=O)(=O)O (stereo partly shown) [Compound D15d],550 ± 70 nM,5900 ± 580 nM,> 50000 nM,
CC(C)C[C@H](NC(=O)OCC(C)(C)Oc1cccc(F)c1)C(=O)N[C@H](C=O)C[C@@H]1CCNC1=O [Compound D16c],780 ± 30 nM,4900 ± 370 nM,> 50000 nM,
CC(C)C[C@H](NC(=O)OCC(C)(C)Oc1cccc(F)c1)C(=O)N[C@@H](C[C@@H]1CCNC1=O)C(O)S(=O)(=O)O (stereo partly shown) [Compound D16d],690 ± 20 nM,5050 ± 210 nM,> 50000 nM,
CC(C)C[C@H](NC(=O)[C@H](Cc1cccc2ccccc12)NC(=O)OCc1ccccc1)C(=O)N[C@H](C=O)C[C@@H]1CCNC1=O [Compound E1],50 ± 80 nM,110 ± 50 nM,> 50000 nM,
CC(C)C[C@H](NC(=O)[C@H](Cc1cccc2ccccc12)NC(=O)OCc1ccccc1)C(=O)N[C@@H](C[C@@H]1CCNC1=O)C(=O)C(=O)NC(C)C [Compound E6],60 ± 60 nM,150 ± 70 nM,> 50000 nM,
CC(C)C[C@H](NC(=O)OCc1ccccc1)C(=O)N[C@@H](C[C@@H]1CCNC1=O)C(=O)C(=O)NC1CC1 [Compound E6b],2400 ± 90 nM,8800 ± 300 nM,> 50000 nM,
CCCCNC(=O)C(=O)[C@H](C[C@@H]1CCNC1=O)NC(=O)[C@H](CC(C)C)NC(=O)OCc1ccccc1 [Compound E6c],2100 ± 70 nM,7000 ± 500 nM,> 50000 nM,
CCOC(=O)CNC(=O)C(=O)[C@H](C[C@@H]1CCNC1=O)NC(=O)[C@H](CC(C)C)NC(=O)OCc1ccccc1 [Compound E6d],2200 ± 50 nM,9200 ± 100 nM,> 50000 nM,
CC(C)C[C@H](NC(=O)OCc1ccccc1)C(=O)N[C@@H](C[C@@H]1CCNC1=O)C(=O)C(=O)NC(C)(C)C [Compound E6g],1500 ± 100 nM,5800 ± 300 nM,> 50000 nM,
CC(C)C[C@H](NC(=O)OCc1ccccc1)C(=O)N[C@@H](C[C@@H]1CCNC1=O)C(=O)c1ncco1 [Compound E8a],3400 ± 80 nM,8200 ± 90 nM,> 50000 nM,
CC(C)C[C@H](NC(=O)OCc1ccccc1)C(=O)N[C@H](C=O)C[C@@H]1CCNC1=O [GC373],2300 ± 70 nM,6600 ± 200 nM,> 50000 nM,
N#Cc1cc(-c2ccccc2)[nH]c1-c1nccc2ccccc12 [NSC116640],,,,inhibited the replication of FMDV in cell culture
